Laboratory results: patent US6767887B1, “Exendin analogues, processes for their preparation and medicaments containing them” (Roche Diagnostics GmbH, priority 1999, dated 2004)
Where a SMILES comes first, the peptide text is derived from it. Where no end group is shown, it is not given here. [ ]: non-standard residue; d: D form. Nle = CCCC[C@H](N)C(=O)O

Experiments:
[1] = test system: isolated islet cells; test: Insulin release from isolated islets; assay type: cell-based, mice
Protocol: The abdomen of anaesthetised (0.3-0.5 ml nembutal/isotonic saline solution 1:4 i.p.) mice is opened by a median incision and two side incisions, the peritoneum is immobilized and cut open at the costal arch along the diaphragm. All organs are inflated and stained red by injection of a neutral red solution into the left ventricle. The pancreas is carefully removed along the stomach and duodenum up to the mesenteries. Until digestion the pancreas is placed in an ice-cooled petri dish in Hank's balanced salt solution (HBBS) and a few drops of neutral red.
Two pancreases are dabbed with cellulose, placed in a tube, 5 ml freshly prepared collagenase solution (collagenase (Cl. histolyticum) 0.74 U/mg, Serva, 2 mg/ml in HBBS/water 1:9, pH 7.4) is added and they are incubated for 18 minutes at 37° C. while shaking. Subsequently a centrifugation is carried out at 1000 rpm for 1 minute. The supernatant is discarded, In a second digestion step 5 ml collagenase solution (1 mg/ml) is incubated for 4 minutes, shaken and undigested tissue is sedimented. The supernatant is decanted and the whole process is repeated four to five times. The supernatant is then centrifuged for 1 minute at 1000 rpm and the collagenase solution is discarded. The remaining pellet is shaken with ice-cold HBBS and sedimented for ca. 10 minutes on ice. This wash process is repeated for a further three times. The faint pink stained islets are picked out from the washed pellets under a stereoscopic magnifying glass and transferred to culture medium (100 ml RPMI 1640 (Gibco), 1 ml glutamine, 1 ml penicillin, 1 ml Cibrobay antibiotic (Bayer), 10 ml foetal calf serum, 2 ml Hepes buffer 1 M). In order to obtain the purest possible culture, the islets are picked two to three times and transferred to fresh culture medium.
The islet cells from the culture medium are distributed in Eppendorff vessels containing […] stimulation buffer (118 mM NaCl, 0.2 mM NaH^2PO^4, 0.565 mM MgCl^2, 1.25 mM CaCl^2, 4.1 mM KCl, 10 mM Hepes, 1% BSA, 3.3 mM glucose; pH 7.4) in a quantity of 10 islets per Eppendorff vessel and placed in an incubator for 1 hour at 37° C. Subsequently the peptides to be tested are added and filled up to […] with stimulation buffer and incubated for one hour at 37° C. The islets are centrifuged at 1000 rpm for 1 minute. The amount of […] is measured in the supernatant using an insulin-RIA (DPC Biermann, Nauheim). Each test substance was determined in quadruplicate.
Some exendin analogues were tested as described above on isolated islet cells for insulin secretory activity.
Insulin Release From Isolated Islets After 1 Hour [mIU/h/10 Islets] in the Presence of 10 mM Glucose: […]

[2] = test system: clonal B cell line INS-1; test: Increase of cytosolic calcium concentration in INS-1 cells (Fura-2); assay type: cell-based; conditions: peptide 10^−8 M, 10 mM glucose
Protocol: Measurement of the Increase of the Cytosolic Calcium Concentration in B Cells of the Endocrine Pancreas (Clonal B Cell Line INS-1)
INS-1 cells are cultured in RPMI 1640 medium containing 10% FCS, 10 mM HEPES buffer (pH 7.4), 2 mM L-glutamine, 100 i.U. penicillin/ml, 100 μg streptomycine/ml, 1 mM pyruvate (sodium salt) and 50 μM 2-mercaptoethanol at 37° C. in an atmosphere of 95% air and 5% CO2. After 6 to 8 days growth on plastic cell culture plates, the subconfluent cells, after rinsing once with PBS (phosphate-buffered saline), are detached from the base by incubating for four minutes at 37° C. with 0.025% trypsin and 0.27 mM EDTA in isoosmotic saline solution
The detached cells are resuspended in Spinner medium (culture medium as above, but containing 5% FCS and 25 mM HEPES) and incubated for two and a half hours in a Spinner bottle with a stirrer bar. Afterwards the medium is removed by centrifugation and the cells are resuspended in Spinner medium. They are then incubated for 30 minutes at 37° C. with 2 μM Fura-2/acetoxymethyl ester under the same conditions as before. The Fura loading of the cells is terminated by washing the cells once Spinner medium (room temperature). Afterwards the cells are resuspended in spinner medium at room temperature (2×10^7 cells/ml). The cells are then removed from this suspension for calcium measurements.
The measurements are carried out at 37° C. in a modified Krebs-Ringer buffer (KRBH) containing 136 mM NaCl, 4.8 mM KCl, 2 mM CaCl2, 1.2 MM MgSO4, 1.2 mM KH2PO4, 5 mM NaNCO3, 10 mM glucose, 250 μM sulfinpyrazone (to inhibit the Fura-2 efflux into the medium) and 25 mM HEPES buffer (adjusted to pH 7.4 with NaOH). The cell concentration is 1-2×10^6/ml. The measurements are carried out in a cuvette stirred with a stirring bar in a spectrofluorimeter at 37° C. with 1.5 ml cell suspension. The excitation wavelength is 340 nm, the emission wavelength is 505 nm. At the end of the measurement 50 μM MnCl2 is added which is followed by 100 μm DTPA (diethylenetriamine pentaacetate) in order to determine the proportion of extracellular fluorescence indicator relative to the measured fluorescence by temporarily quenching the fluorescence of extracellular Fura. After the addition of DTPA the entire Fura is firstly converted into a calcium-saturated and then into a calcium-free state to determine the calibration values Fmax (calcium-saturated) and Fmin (calcium-free) for the respective measurement. For this purpose the cells are lysed by adding 0.1% Triton X-100. The dye is saturated with calcium by contact with the high extracellular calcium concentration. […]
The cytosolic calcium ion concentration is calculated according to the algorithm introduced by R. Tsien and colleagues (Grynkiewicz, G., 1985): […]

[3] = biological target: dipeptidyl peptidase IV (DDP-IV) (Homo sapiens, UniProt P27487)
Chain of dipeptidyl peptidase IV (DDP-IV) (P27487 whole entry): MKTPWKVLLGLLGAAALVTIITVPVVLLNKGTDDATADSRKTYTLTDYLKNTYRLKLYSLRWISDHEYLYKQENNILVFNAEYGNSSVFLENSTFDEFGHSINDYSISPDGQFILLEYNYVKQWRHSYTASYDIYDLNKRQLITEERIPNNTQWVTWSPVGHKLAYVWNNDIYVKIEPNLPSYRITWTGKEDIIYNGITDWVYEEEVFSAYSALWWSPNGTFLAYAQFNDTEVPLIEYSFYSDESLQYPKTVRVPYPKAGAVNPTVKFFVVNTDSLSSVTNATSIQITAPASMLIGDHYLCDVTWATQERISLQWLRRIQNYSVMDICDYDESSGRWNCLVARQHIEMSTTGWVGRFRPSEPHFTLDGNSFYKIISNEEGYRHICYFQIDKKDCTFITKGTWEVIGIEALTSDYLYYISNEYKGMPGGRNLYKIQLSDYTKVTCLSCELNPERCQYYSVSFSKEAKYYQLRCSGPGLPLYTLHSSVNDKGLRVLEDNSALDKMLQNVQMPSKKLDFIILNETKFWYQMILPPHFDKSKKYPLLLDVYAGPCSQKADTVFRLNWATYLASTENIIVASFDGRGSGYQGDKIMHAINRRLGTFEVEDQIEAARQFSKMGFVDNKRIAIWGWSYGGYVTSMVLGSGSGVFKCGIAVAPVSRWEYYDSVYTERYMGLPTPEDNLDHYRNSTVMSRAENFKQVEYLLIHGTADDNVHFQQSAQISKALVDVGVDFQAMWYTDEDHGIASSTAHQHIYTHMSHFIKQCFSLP
Protocol: Renal brush border microvilli membranes (BBM) are therefore a suitable source for the relevant ectopeptidases and can be used as an in vitro test for the metabolic stability of synthetic peptides. Alternatively it is possible to use ectopeptidase preparations.
(§1) Microvilli membranes (0.5-1 μg protein) or the respective ectopeptidase preparation (60-300 ng) were incubated with 10 μg peptide (about 3 nmol) in 100 μl HEPES buffer (50 mM, pH 7.4) which contained 50 mM NaCl. The reactions were terminated at predetermined times (duration up to 1 hour) by boiling. Subsequently the samples were centrifuged (10,000×g), diluted with 150 μl 0.1% TFA and analysed by means of reversed phase (RP) HPLC. Each sample was determined in duplicate.
A system with the following components was used for HPLC analysis: A 2248 low pressure pump (Pharmacia-LKB, Freiburg), a WISP 10B autoinjector (Millipore-Waters, Eschborn), a UV detector SP-4 (Gynkotec, Berlin), a low pressure mixing system (Pharmacia-LKB, Freiburg) and a program manager software control (Pharmacia-LKB, Freiburg). […] After injection of 244 μl of the sample solution onto a column equilibrated with the motile solvent A, the incubation products were eluted with a linear gradient of 0% to 80% B in 80 min and detected at 215 nm UV absorption. […]

[4] = test system: brush border microvilli membranes (BBM); conditions: pH 7.4
Protocol: Renal brush border microvilli membranes (BBM) are therefore a suitable source for the relevant ectopeptidases and can be used as an in vitro test for the metabolic stability of synthetic peptides.
Microvilli membranes of the rat and pig kidney cortex are isolated by means of subcellular fractionation using the differential centrifugation method (Booth and Kenny (1975)). 4 Brush border ectopeptidases are examined fluorimetrically and other marker enzymes are measured colorimetrically in order to assess the degree of purity and the yield of membranes.
as §1
A system with the following components was used for HPLC analysis: A 2248 low pressure pump (Pharmacia-LKB, Freiburg), a WISP 10B autoinjector (Millipore-Waters, Eschborn), a UV detector SP-4 (Gynkotec, Berlin), a low pressure mixing system (Pharmacia-LKB, Freiburg) and a program manager software control (Pharmacia-LKB, Freiburg). […]

“GLP-1-(7-36)-NH2 [GLP1-(7-36)-NH2, reference compound]” was tested, and the “Insulin release from isolated islets after 1 hour” value (from here on “Insulin release”) ([1]; peptide 10^−7, 10 mM glucose) was 53.52 mIU/h/10 Islets, the “Insulin release” value ([1]; peptide 10^−8, 10 mM glucose) was 42.78 mIU/h/10 Islets and the “Insulin release” value ([1]; peptide 10^−9, 10 mM glucose) was 29.99 mIU/h/10 Islets. For the same compound, the “Δ[Ca^2+]cyt ± SD (n = 4)” value [2] was 65 ± 10 nM.

With “[Nle^14, Arg^30]-exendin-3-(1-30)-NH2 (HSDGTFTSDLSKQ[Nle]EEEAVRLFIEWLKNGR-NH2; N-terminus assumed; SMILES CCCC[C@H](NC(=O)[C@H](CCC(N)=O)NC(=O)[C@H](CCCCN)NC(=O)[C@H](CO)NC(=O)[C@H](CC(C)C)NC(=O)[C@H](CC(=O)O)NC(=O)[C@H](CO)NC(=O)[C@@H](NC(=O)[C@H](Cc1ccccc1)NC(=O)[C@@H](NC(=O)CNC(=O)[C@H](CC(=O)O)NC(=O)[C@H](CO)NC(=O)[C@@H](N)Cc1c[nH]cn1)[C@@H](C)O)[C@@H](C)O)C(=O)N[C@@H](CCC(=O)O)C(=O)N[C@@H](CCC(=O)O)C(=O)N[C@@H](CCC(=O)O)C(=O)N[C@@H](C)C(=O)N[C@H](C(=O)N[C@@H](CCCNC(=N)N)C(=O)N[C@@H](CC(C)C)C(=O)N[C@@H](Cc1ccccc1)C(=O)N[C@H](C(=O)N[C@@H](CCC(=O)O)C(=O)N[C@@H](Cc1c[nH]c2ccccc12)C(=O)N[C@@H](CC(C)C)C(=O)N[C@@H](CCCCN)C(=O)N[C@@H](CC(N)=O)C(=O)NCC(=O)N[C@@H](CCCNC(=N)N)C(N)=O)[C@@H](C)CC)C(C)C) [Seq. ID 5]” the “Δ[Ca^2+]cyt ± SD (n = 4)” value [2] was 63 ± 8 nM.

For “10 (HGEGTFTSDLSKQMEEEAVRAFIEWLKAGR) [compound 10]”, the “Δ[Ca^2+]cyt ± SD (n = 4)” value [2] was 69 ± 30 nM.

`CCCC[C@H](NC(=O)[C@H](CCC(N)=O)NC(=O)[C@H](CCCCN)NC(=O)[C@H](CO)NC(=O)[C@H](CC(C)C)NC(=O)[C@H](CC(=O)O)NC(=O)[C@H](CO)NC(=O)[C@@H](NC(=O)[C@H](Cc1ccccc1)NC(=O)[C@@H](NC(=O)CNC(=O)[C@H](CC(=O)O)NC(=O)[C@H](C)NC(=O)[C@@H](N)Cc1c[nH]cn1)[C@@H](C)O)[C@@H](C)O)C(=O)N[C@@H](CCC(=O)O)C(=O)N[C@@H](CCC(=O)O)C(=O)N[C@@H](CCC(=O)O)C(=O)N[C@@H](C)C(=O)N[C@H](C(=O)N[C@@H](CCCNC(=N)N)C(=O)N[C@@H](CC(C)C)C(=O)N[C@@H](Cc1ccccc1)C(=O)N[C@H](C(=O)N[C@@H](CCC(=O)O)C(=O)N[C@@H](Cc1c[nH]c2ccccc12)C(=O)N[C@@H](CC(C)C)C(=O)N[C@@H](CCCCN)C(=O)N[C@@H](CC(N)=O)C(=O)NCC(=O)N[C@@H](CCCNC(=N)N)C(N)=O)[C@@H](C)CC)C(C)C` [compound 78] (H-HADGTFTSDLSKQ[Nle]EEEAVRLFIEWLKNGR-NH2) was tested, and the “Substrate for DDP-IV” value [3] was “no proteolysis”.

For “[Ala^21, Arg^30]-exendin-4-(1-30)-NH2 [Seq. ID 8]”, the “Δ[Ca^2+]cyt ± SD (n = 4)” value [2] was 64 ± 8 nM.

“[H^2 Nle^14R^30]-Ex-3-(1-30)—NH2 (HHDGTFTSDLSKQ[Nle]EEEAVRLFIEWLKNGR-NH2; N-terminus assumed; SMILES CCCC[C@H](NC(=O)[C@H](CCC(N)=O)NC(=O)[C@H](CCCCN)NC(=O)[C@H](CO)NC(=O)[C@H](CC(C)C)NC(=O)[C@H](CC(=O)O)NC(=O)[C@H](CO)NC(=O)[C@@H](NC(=O)[C@H](Cc1ccccc1)NC(=O)[C@@H](NC(=O)CNC(=O)[C@H](CC(=O)O)NC(=O)[C@H](Cc1c[nH]cn1)NC(=O)[C@@H](N)Cc1c[nH]cn1)[C@@H](C)O)[C@@H](C)O)C(=O)N[C@@H](CCC(=O)O)C(=O)N[C@@H](CCC(=O)O)C(=O)N[C@@H](CCC(=O)O)C(=O)N[C@@H](C)C(=O)N[C@H](C(=O)N[C@@H](CCCNC(=N)N)C(=O)N[C@@H](CC(C)C)C(=O)N[C@@H](Cc1ccccc1)C(=O)N[C@H](C(=O)N[C@@H](CCC(=O)O)C(=O)N[C@@H](Cc1c[nH]c2ccccc12)C(=O)N[C@@H](CC(C)C)C(=O)N[C@@H](CCCCN)C(=O)N[C@@H](CC(N)=O)C(=O)NCC(=O)N[C@@H](CCCNC(=N)N)C(N)=O)[C@@H](C)CC)C(C)C) [Seq. ID 84]” was tested, and the “Insulin release” value ([1]; peptide 10^−7, 10 mM glucose) was 48.94 mIU/h/10 Islets, the “Insulin release” value ([1]; peptide 10^−8, 10 mM glucose) was 41.72 mIU/h/10 Islets and the “Insulin release” value ([1]; peptide 10^−9, 10 mM glucose) was 38.76 mIU/h/10 Islets. For the same compound, the “Insulin release” value ([1]; peptide 10^−10, 10 mM glucose) was 35.05 mIU/h/10 Islets.

Work on `CCCC[C@H](NC(=O)[C@H](CCC(N)=O)NC(=O)[C@H](CCCCN)NC(=O)[C@H](CO)NC(=O)[C@H](CC(C)C)NC(=O)[C@H](CC(=O)O)NC(=O)[C@H](CO)NC(=O)[C@@H](NC(=O)[C@H](Cc1ccccc1)NC(=O)[C@@H](NC(=O)CNC(=O)[C@H](CC(=O)O)NC(=O)[C@H](CCCCN)NC(=O)[C@@H](N)Cc1c[nH]cn1)[C@@H](C)O)[C@@H](C)O)C(=O)N[C@@H](CCC(=O)O)C(=O)N[C@@H](CCC(=O)O)C(=O)N[C@@H](CCC(=O)O)C(=O)N[C@@H](C)C(=O)N[C@H](C(=O)N[C@@H](CCCNC(=N)N)C(=O)N[C@@H](CC(C)C)C(=O)N[C@@H](Cc1ccccc1)C(=O)N[C@H](C(=O)N[C@@H](CCC(=O)O)C(=O)N[C@@H](Cc1c[nH]c2ccccc12)C(=O)N[C@@H](CC(C)C)C(=O)N[C@@H](CCCCN)C(=O)N[C@@H](CC(N)=O)C(=O)NCC(=O)N[C@@H](CCCNC(=N)N)C(N)=O)[C@@H](C)CC)C(C)C` [compound 86] (H-HKDGTFTSDLSKQ[Nle]EEEAVRLFIEWLKNGR-NH2) yielded a Degradation rate [4] of 2.05 ng peptide/min/mg BBM.
